Measured values as given in patent publication US20210228545A1, “METHODS OF TREATING CONDITIONS RELATED TO THE S1P1 RECEPTOR” (Arena Pharmaceuticals, Inc., priority 2018, published 2021).
Entries after “also recorded” stand apart in the source; their conditions may differ.

Tests used:
Type in all cases: in vitro ADME
CYP enzymes = assay: Metabolism-dependent inhibition of CYP enzymes in human liver microsomes; details: 30 min preincubation with NADPH-regenerating system
Description: Known metabolism-dependent and/or direct inhibitors of CYP and UGT enzymes were included as positive controls, as applicable.

CYP3A4 = assay: CYP induction in cultured human hepatocytes; details: criteria >2-fold mRNA increase and ≥20% of positive control
OAT1 = molecular target: T1, OAT1 (Homo sapiens, UniProt Q4U2R8); assay: Transporter inhibition, HEK293 cells
T1 construct: expressed in transfected cells; host or cells: HEK293
T1 sequence (Q4U2R8 1-563): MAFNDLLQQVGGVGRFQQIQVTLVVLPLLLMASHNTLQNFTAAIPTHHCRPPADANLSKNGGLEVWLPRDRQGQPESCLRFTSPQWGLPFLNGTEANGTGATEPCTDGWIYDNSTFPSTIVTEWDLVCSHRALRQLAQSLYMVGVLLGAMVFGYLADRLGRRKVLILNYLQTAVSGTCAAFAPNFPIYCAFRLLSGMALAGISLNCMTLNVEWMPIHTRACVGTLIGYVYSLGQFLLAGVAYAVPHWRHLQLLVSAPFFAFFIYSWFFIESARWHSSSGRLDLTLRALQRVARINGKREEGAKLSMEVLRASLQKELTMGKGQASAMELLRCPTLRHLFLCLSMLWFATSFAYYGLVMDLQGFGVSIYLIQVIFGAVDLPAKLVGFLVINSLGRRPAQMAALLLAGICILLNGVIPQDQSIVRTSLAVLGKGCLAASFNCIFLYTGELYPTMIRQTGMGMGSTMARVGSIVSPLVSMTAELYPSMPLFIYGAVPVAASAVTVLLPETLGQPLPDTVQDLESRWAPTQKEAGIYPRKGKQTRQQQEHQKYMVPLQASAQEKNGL

**Q.** For `O=C(O)C[C@H]1CCc2c1[nH]c1ccc(OCc3ccc(C4CCCC4)c(C(F)(F)F)c3)cc21` [Compound 1, (R)-2-(7-(4-cyclopentyl-3-(trifluoromethyl)benzyloxy)-1,2,3,4-tetrahydrocyclopenta[b]indol-3-yl)acetic acid], which “Metabolism-dependent inhibition of CYPs” value (CYP enzymes) is on record?
**A.** little or no evidence of metabolism-dependent inhibition

**Q.** And the “Induction potential for CYP3A4” value (CYP3A4)?
**A.** no induction potential; also recorded: not a potential inducer

**Q.** What about the “Reduction of uptake rate of p-aminohippurate into OAT1-expressing cells (inhibition)” value (OAT1; 1 and 10 μM) of the same compound?
**A.** less than 50%

**Q.** And the IC50 (OAT1; HEK293 cells, [3H]-p-aminohippurate (1 μM), 1 and 10 μM tested)?
**A.** > 10 µM
